What was measured:
Format in all cases: cell-based
[1] = biological target: human calcitonin receptor (CTR) and RAMP3 (AMY3) in COS-7 cells (Homo sapiens, UniProt O60896+P30988); assay: Amylin Receptor cAMP Assay II; conditions: value marked **: Amylin Receptor cAMP Assay II; COS-7/AMY3 cells; read-out: Amylin Receptor cAMP Stimulation Activity: EC50
From the text: Amylin Receptor cAMP Assay II
AMYRs are heterodimers of the class B calcitonin (CT) G-protein-coupled receptor (CTR) and receptor activity-modifying proteins (RAMPs). All three RAMPs can interact with the CTR and form AMY1, AMY2, AMY3 with RAMP1, RAMP2 and RAMP3, respectively. Like other class B1 GPCRs, the CT receptor family is canonically coupled to Gs-mediated cAMP production, and measurement of cAMP accumulation has been the primary assay used to determine peptide selectivity and potency.
To optimize functional activity directed toward Gas coupling, COS-7 cells were stably transfected with human calcitonin receptor (CTR) and RAMP3, simultaneously. 100× concentration of compound working solutions were prepared with 4-fold serial dilution in 384-well Echo LDV plate (Labcyte, Cat #LP-0200-BC). 200 nL/well 100× concentration of compound working solutions were moved to 384-well white microplate (Perkin Elmer, Cat #6007680) using Labcyte ECHO550. […]
After incubation, the cAMP assay signal was generated using cAMP dynamic 2 kit (Revvity, Cat #62AM4PEC). […] The samples were then incubated at room temperature for 1 hour protected from light. the fluorescence was read at 665 and 615 nm with Reader PerkinElmer EnVision 2105.

[2] = biological target: T1, human calcitonin receptor (CTR) in COS-7 cells (Homo sapiens, UniProt P30988); assay: Calcitonin Receptor (CTR) cAMP Assay; conditions: COS7-human CTR Clone #2 cells; read-out: Calcitonin Receptor cAMP Stimulation Activity: EC50
T1 construct: expressed in transfected cells; host or cells: COS-7 (COS7-human CTR Clone #2)
T1 sequence (P30988 25-474): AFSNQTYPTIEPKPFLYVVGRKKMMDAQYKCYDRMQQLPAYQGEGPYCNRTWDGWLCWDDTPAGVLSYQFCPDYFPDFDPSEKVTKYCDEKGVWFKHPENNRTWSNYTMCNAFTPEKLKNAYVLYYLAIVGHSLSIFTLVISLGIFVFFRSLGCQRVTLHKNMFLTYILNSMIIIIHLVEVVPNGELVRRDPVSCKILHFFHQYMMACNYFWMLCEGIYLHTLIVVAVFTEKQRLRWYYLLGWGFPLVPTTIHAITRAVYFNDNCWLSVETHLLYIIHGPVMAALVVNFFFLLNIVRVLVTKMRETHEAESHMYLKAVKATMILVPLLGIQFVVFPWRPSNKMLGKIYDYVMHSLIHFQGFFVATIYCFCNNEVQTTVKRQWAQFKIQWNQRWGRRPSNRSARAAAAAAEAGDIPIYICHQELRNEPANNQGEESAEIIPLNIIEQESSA
From the text: Calcitonin Receptor (CTR) cAMP Assay
The calcitonin receptor (CTR) belongs to the subfamily of GPCRs known as the secretin or ‘B’ family of GPCRs. Like other class B1 GPCRs, the CT receptor family is canonically coupled to Gs-mediated cAMP production, and measurement of cAMP accumulation has been the primary assay used to determine peptide selectivity and potency.
(§1) To optimize functional activity directed toward Gas coupling, COS-7 cells were stably transfected with human calcitonin receptor (CTR) to create COS7-human CTR Clone #2 stable cell line. 100× concentration of compound working solutions were prepared with 4-fold serial dilution in 384-well Echo LDV plate (Labcyte, Cat #LP-0200-BC). 200 nL/well 100× concentration of compound working solutions were moved to 384-well white microplate (Perkin Elmer, Cat #6007680) using Labcyte ECHO550. 1×10^5 cells/mL COS7-human CTR Clone #2 cell suspensions prepared with assay buffer [HBSS containing 20 mM HEPES (Gibco, Cat #15630-080), 0.5 mM IBMX (Sigma, Cat #15879) and 0.1% Casein (Sigma, Cat #C4765)], 20 μL cell suspensions were added to each well of previous generated assay plate which already contains 200 nL compound at 100× concentration using ThermoFisher Multidrop Combi (2000 cells/well). Seal the plate and incubate at 37° C. with 5% CO2 for 30 min.
(§2) After incubation, the cAMP assay signal was generated using cAMP dynamic 2 kit (Revvity, Cat #62AM4PEC). 10 μL cAMP-d2 working solution was added to each well, followed by 10 L Anti-cAMP antibody-cryptate working solution which was added to each well using CERTUS FLEX LIQUID DISPENSER. The samples were then incubated at room temperature for 1 hour protected from light. the fluorescence was read at 665 and 615 nm with Reader PerkinElmer EnVision 2105.

[3] = biological target: Amylin Receptor (Homo sapiens, UniProt O60896+P30988); assay: Amylin Receptor cAMP stimulation, assay version (I or II) not marked; conditions: values without footnote mark; assay I or II not stated
Chain of Amylin Receptor (O60896 24-148, one chain of several): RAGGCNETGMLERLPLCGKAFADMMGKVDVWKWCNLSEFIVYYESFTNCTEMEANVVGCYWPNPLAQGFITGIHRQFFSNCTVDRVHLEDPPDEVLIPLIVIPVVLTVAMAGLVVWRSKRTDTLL
Description: To optimize functional activity directed toward Gas coupling, COS-7 cells were stably transfected with human calcitonin receptor (CTR) and RAMP3, simultaneously. 100× concentration of compound working solutions were prepared (Agilent Technologies Bravo) with 4-fold serial dilution in 384-well Echo LDV plate (Labcyte, Cat #LP-0200). 100 nL/well 100× concentration of compound working solutions were moved to 384-well white low volume plate (Greiner, Cat #784075) using Labcyte ECHO550. 1×10^5 cells/mL COS-7/CTR or COS-7/AMY3 (HD Biosciences) cell suspensions prepared with assay buffer [DPBS containing 0.5 mM IBMX (Sigma, Cat #15879) and 0.1% BSA (GENVIEW, Cat #FA016-100 g)], 10 μL cell suspensions were added to each well of previous generated assay plate which already contains 100 nL compound at 100× concentration using ThermoFisher Multidrop Combi (1000 cells/well). Seal the plate and incubate at 37° C. with 5% CO2 for 30 min.
as §2, with “Hi-range Kit (Cisbio). 5” for “dynamic 2 kit (Revvity, Cat #62AM4PEC). 10”, “5 μL” for “10 L”, “ThermoFisher Multidrop Combi.” for “CERTUS FLEX LIQUID DISPENSER.”, “EnVision.” for “EnVision 2105.”
as §1, with “and RAMP3, simultaneously.” for “to create COS7-human CTR Clone #2 stable cell line.”, “COS-7/AMY3” for “COS7-human CTR Clone #2”
as §2, with “10 μL” for “10 L”

Chain of human calcitonin receptor (CTR) and RAMP3 (AMY3) in COS-7 cells (O60896 24-148, one chain of several): as above

Row | SMILES | EC50 [1] | EC50 [2] | EC50 [3]
1 | Cc1nnc(-c2c(CCC3CCN(C(=O)OCc4ccccc4)CC3)nc(CC(C)C)c(C(N)=O)c2-c2ccc(C(=O)NCc3ccc(F)c(F)c3)s2)o1 [Compound 205, Benzyl 4-[2-[5-carbamoyl-4-[5-[(3,4-difluorophenyl)methylcarbamoyl]-2-thienyl]-6-isobutyl-3-(5-methyl-1,3,4-oxadiazol-2-yl)-2-pyridyl]ethyl]piperidine-1-carboxylate] | 66 nM | 6 nM | –
2 | COc1cccc2c1CC[C@H]2Nc1nccc2cc(-c3c(C(N)=O)c(CC(C)C)nc(CCC4CCOCC4)c3-c3nnc(C)o3)sc12 [Compound 208, 4-{7-[(R)-4-methoxy-1-indanylamino]-1-thia-6-aza-2-indenyl}-2-isobutyl-5-(5-methyl-1,3,4-oxadiazol-2-yl)-6-[2-(tetrahydro-2H-pyran-4-yl)ethyl]nicotinamide] | – | 0.581 nM | 18.9 nM

Reference: patent US20250042916A1 (ACONCAGUA BIO, INC., priority 2023, published 2025)
